Experimental data: patent US9598433B2, “Hepatitis C virus inhibitors” (BRISTOL-MYERS SQUIBB COMPANY, priority 2012, dated 2017)
Where two headings read alike, the source gives them in different places.

Legend:
[1] = tested on: HCV genotype 1a (H77 strain) replicon in HUH-7 cells; test: HCV replicon luciferase reporter assay, genotype 1a; assay type: cell-based; details: Hepatitis C virus, 72 h, genotype 1a replicon, 3 days incubation
Source text: (§1) An HCV replicon whole cell system was established as described by Lohmann V, Korner F, Koch J, Herian U, Theilmann L, Bartenschlager R., Science 285(5424):110-3 (1999) and modified to introduce a luciferase reporter, as first described by Krieger et al (Krieger N, Lohmann V, and Bartenschlager R, J. Virol. 75(10):4614-4624 (2001)). CDNA encoding a humanized form of the Renilla luciferase gene and a linker sequence fused directly to the 3′-end of the luciferase gene were introduced into the replicon construct using an Ascl restriction site located in core, directly upstream of the neomycin marker gene. The adaptive mutation at position 1179 (serine to isoleucine) was also introduced (Blight K J, Kolykhalov, A A, Rice, C M, Science 290(5498):1972-1974). A stable cell line constitutively expressing this HCV replicon construct was generated by first linearizing plasmid DNAs with ScaI. RNA transcripts were synthesized in vitro using the T7 MegaScript transcription kit (Ambion, Austin, Tex.) according to manufacturer's directions. In vitro transcripts of the cDNA were transfected into the human hepatoma cell line, HUH-7. […] Resulting cell lines were characterized for positive and negative strand RNA production and protein production over time.
A stable HCV replicon luciferase reporter cell line representing the genotype 1a H77 strain (Yanagi M, Purcell R H, Emerson S U, et al. Transcripts from a single full-length cDNA clone of hepatitis C virus are infectious when directly transfected into the liver of a chimpanzee. Proc Natl Acad Sci USA 1997; 94(16):8738-8743) was generated as described previously for the genotype 1b(Con1) replicon luciferase cell line. The replicon construct was modified by introducing mutations were introduced into the genes encoding the NS3 helicase domain (proline replaced by leucine at position 1496) and NS5A (serine to isoleucine at position 2204) to improve replication in cell culture.
(§2) HCV replicon luciferase assays were developed to monitor the inhibitory effects of compounds described in the disclosure on HCV genotypes 1a and 1b viral replication. HUH-7 cells, constitutively expressing the HCV replicon, were grown in Dulbecco's Modified Eagle Media (DMEM) (Gibco-BRL) containing 10% Fetal calf serum (FCS) (Sigma) and 1 mg/mL G418 (Gibco-BRL). Compounds were serially diluted 3 folds in DMSO for a twenty-point titration and subsequently transferred to sterile 384-well tissue-culture treated plates (Corning cat #3571). The plates were then seeded with 50 μL of cells at a density of 3.0×10^3 cells/well in DMEM containing 4% FCS (final DMSO concentration at 0.5%). After 3 days incubation at 37° C., cells were analyzed for Renilla Luciferase activity using the EnduRen as substrate (Promega cat #E6485). The EnduRen substrate was diluted in DMEM and then added to the plates to a final concentration of 7.5 μM. The plates were incubated for 2 hrs at 37° C. and then read immediately for 30 seconds with Viewlux Imager (PerkinElmer) using a luminescence program. To assess cytotoxicity of compounds, CC50 values were generated by multiplexing the EnduRen-containing plates with Cell Titer-Blue (Promega, cat # G8082). Cell-Titer Blue (3 μL) was added to each well and incubated for 8 hrs at 37° C. The fluorescence signal from each well was read, with an excitation wavelength at 525/10 nm and an emission wavelength of 598/10 nm, using the Viewlux Imager.
(§3) The EC50 values for compounds were calculated by using a four-parameter logistic equation: y=A+((B−A)/(1+((C/x)^D))), where A and B denotes minimal and maximal % inhibition, respectively, C is the EC50, D is the hill slope and x represents compound concentration.

[2] = tested on: HCV genotype 1b (Con1) replicon in HUH-7 cells; test: HCV replicon luciferase reporter assay, genotype 1b; assay type: cell-based; details: Hepatitis C virus, 72 h, genotype 1b replicon, 3 days incubation
Source text: as §1, §2, §3

| SMILES | EC50 ([1]; read-out: LE_1a (EC50, range)) | EC50 ([2]; read-out: LE_1b (EC50, range)) | EC50 ([1]; read-out: LE_1a (EC50)) | EC50 ([2]; read-out: LE_1b (EC50)) |
| --- | --- | --- | --- | --- |
| COc1cc2ccnc(O[C@@H]3C[C@H]4C(=O)N[C@]5(C(=O)NS(=O)(=O)C6(C)CC6)C[C@H]5/C=C\CC[C@@H](C)O[C@@H](C)[C@H](NC(=O)OC(C)(C)C(F)(F)F)C(=O)N4C3)c2cc1F [Compound 2005, 1,1,1-trifluoro-2-methylpropan-2-yl ((2R,6S,7S,9R,13aS,14aR,16aS,Z)-2-((7-fluoro-6-methoxyisoquinolin-1-yl)oxy)-7,9-dimethyl-14a-(((1-methylcyclopropyl)sulfonyl)carbamoyl)-5,16-dioxo-2,3,5,6,7,9,10,11,13a,14,14a,15,16,16a-tetradecahydro-1H-cyclopropa[i]pyrrolo[1,2-e][1,5,8]oxadiazacyclopentadecin-6-yl)carbamate] | 1.01 to 5 nM | 0.1 to 0.5 nM | – | – |
| COc1cc2ccnc(O[C@@H]3C[C@H]4C(=O)N[C@]5(C(=O)NS(=O)(=O)C6(C)CC6)C[C@H]5/C=C\CC[C@@H](C)O[C@@H](C)[C@H](NC(=O)OC(C)(C)C(C)(F)F)C(=O)N4C3)c2cc1F [Compound 2006, 3,3-difluoro-2-methylbutan-2-yl ((2R,6S,7S,9R,13aS,14aR,16aS,Z)-2-((7-fluoro-6-methoxyisoquinolin-1-yl)oxy)-7,9-dimethyl-14a-(((1-methylcyclopropyl)sulfonyl)carbamoyl)-5,16-dioxo-2,3,5,6,7,9,10,11,13a,14,14a,15,16,16a-tetradecahydro-1H-cyclopropa[i]pyrrolo[1,2-e][1,5,8]oxadiazacyclopentadecin-6-yl)carbamate] | 1.01 to 5 nM | 0.1 to 0.5 nM | – | – |
| COc1cnc(O[C@@H]2C[C@H]3C(=O)N[C@]4(C(=O)NS(=O)(=O)C5(C)CC5)C[C@H]4/C=C\CC[C@@H](C)O[C@@H](C)[C@H](NC(=O)OC(C)(C)C(F)(F)F)C(=O)N3C2)c2cc(F)ccc12 [Compound 2007, 1,1,1-trifluoro-2-methylpropan-2-yl ((2R,6S,7S,9R,13aS,14aR,16aS,Z)-2-((7-fluoro-4-methoxyisoquinolin-1-yl)oxy)-7,9-dimethyl-14a-(((1-methylcyclopropyl)sulfonyl)carbamoyl)-5,16-dioxo-2,3,5,6,7,9,10,11,13a,14,14a,15,16,16a-tetradecahydro-1H-cyclopropa[i]pyrrolo[1,2-e][1,5,8]oxadiazacyclopentadecin-6-yl)carbamate] | 0.51 to 1 nM | 0.1 to 0.5 nM | 0.63 nM | 0.24 nM |
| COc1cnc(O[C@@H]2C[C@H]3C(=O)N[C@]4(C(=O)NS(=O)(=O)C5(C)CC5)C[C@H]4/C=C\CC[C@@H](C)O[C@@H](C)[C@H](NC(=O)OC(C)(C)C(C)(F)F)C(=O)N3C2)c2cc(F)ccc12 [Compound 2008, 3,3-difluoro-2-methylbutan-2-yl ((2R,6S,7S,9R,13aS,14aR,16aS,Z)-2-((7-fluoro-4-methoxyisoquinolin-1-yl)oxy)-7,9-dimethyl-14a-(((1-methylcyclopropyl)sulfonyl)carbamoyl)-5,16-dioxo-2,3,5,6,7,9,10,11,13a,14,14a,15,16,16a-tetradecahydro-1H-cyclopropa[i]pyrrolo[1,2-e][1,5,8]oxadiazacyclopentadecin-6-yl)carbamate] | 0.51 to 1 nM | 0.1 to 0.5 nM | – | – |
| C[C@@H]1CC/C=C\[C@@H]2C[C@@]2(C(=O)NS(=O)(=O)C2(C)CC2)NC(=O)[C@@H]2C[C@@H](Oc3nccc4c5c(ccc34)OCCO5)CN2C(=O)[C@@H](NC(=O)OC(C)(C)C(F)(F)F)[C@H](C)O1 [Compound 2009, 1,1,1-trifluoro-2-methylpropan-2-yl ((2R,6S,7S,9R,13aS,14aR,16aS,Z)-2-((2,3-dihydro-[1,4]dioxino[2,3-f]isoquinolin-7-yl)oxy)-7,9-dimethyl-14a-(((1-methylcyclopropyl)sulfonyl)carbamoyl)-5,16-dioxo-2,3,5,6,7,9,10,11,13a,14,14a,15,16,16a-tetradecahydro-1H-cyclopropa[i]pyrrolo[1,2-e][1,5,8]oxadiazacyclopentadecin-6-yl)carbamate] | 1.01 to 5 nM | 0.51 to 1 nM | – | – |
